Experimental data reported in PMC4671257, “Plasmodium falciparum SERA5 plays a non-enzymatic role in the malarial asexual blood-stage lifecycle” (Molecular Microbiology, 2015).

Biological target: SERA5 (rSERA5-C) (Plasmodium falciparum, UniProt Q9TY95, S596C)
Assay: fluorogenic peptide (Abz-LAQAVRSSSR-Dpa) cleavage assay with purified rSERA5-C, progress curves
Type: biochemical

`CC(C)C[C@H](NC(=O)[C@H]1O[C@@H]1C(=O)O)C(=O)NCCCCN=C(N)N` [E64, trans-epoxysuccinyl-L-leucylamido(4-guanidino)butane] gave an IC50 of 2.9 ± 0.3 µM.
